# Test results as given in patent US6982157B1, “Drug combinations comprising (E)-7-[4-(4-fluorophenyl)-6-isopropyl-2-[methylsulfonyl)amino] pyrimidin-5-yl] (3r,5s) -3,5-dihydroxyhept-6-enoic acid and an inhibitor, inducer or substrate of p450 isoenzyme 3A4” (AstraZeneca AB, priority 1999, dated 2006).
# What was measured:
# [1] = test system: hypercholesterolaemia in patients following transplantation; assay: Clinical study of the Agent in post-transplant patients on immunosuppressive therapy; assay type: in vivo, human
# Experimental: Trial Design This is a multicenter, randomized, double-blind, parallel-group clinical trial. […] Patients who have had their dose titrated up to 40 mg may have their dose titrated back down to 20 mg at the investigator's discretion.
# human hepatocytes = assay: Metabolism of [14C]-labelled Agent by human hepatocytes; assay type: in vitro ADME; settings: human hepatocytes in culture, 0-48 hours
# Experimental: Cultures were terminated with ethanol after 0, 6, 24 and 48 hours of incubation and stored at approximately −20° C. until analysed. The metabolic competence of the hepatocytes was confirmed at the time of incubation by examining their ability to metabolise [^14C]-ethoxycoumarin (25 μM); aliquots were removed into methanol at the same time points as for the test compound.
# Following incubation of [^14C]-ZD4522 with hepatocytes, metabolite profiles were generated by High Performance Liquid Chromatography (HPLC). The ability of hepatocytes to metabolise [^14C]-ethoxycoumarin was confirmed by HPLC.
# [2] = test system: mixed hyperlipidaemia and hypertriglyceridaemia in patients; assay: Clinical study of the Agent dosed with a fibrate drug; assay type: in vivo, human
# [3] = test system: heart transplant patients; settings: cited from earlier work
# [4] = test system: cytochrome P450 enzymes, in particular 3A4; settings: cited from earlier work
# patients = settings: cited from earlier work
# [5] = patients undertaking immunosuppressive therapy
smiles,measurement,setting,value
"CC(C)c1nc(N(C)S(C)(=O)=O)nc(-c2ccc(F)cc2)c1/C=C/[C@@H](O)C[C@@H](O)CC(=O)O [Agent, (E)-7-[4-(4-fluorophenyl)-6-isopropyl-2-[methyl(methylsulfonyl)amino]pyrimidin-5-yl](3R,5S)-3,5-dihydroxyhept-6-enoic acid]",treating hypercholesterolaemia in patients following transplantation,[1]; patients following transplantation,extremely effective
same,"level of cholesterol lowering compared with what was previously achieved, such as by pravastatin",[1]; [5],much higher levels of cholesterol lowering
same,side effects of concomitant dosing of the Agent and immunosuppressive drug(s),[1]; [5],without any clinically significant side effects
same,metabolism of the Agent by whole hepatocytes,human hepatocytes,not significantly metabolised
same,treating mixed hyperlipidaemia and hypertriglyceridaemia when combined with a fibrate drug,[2]; combined with a fibrate drug,extremely effective
same,side effects of concomitant dosing of the Agent and the fibrate drug,[2]; patients also taking a fibrate drug,without any clinically significant side effects
"CC[C@H](C)C(=O)O[C@H]1C[C@@H](C)C=C2C=C[C@H](C)[C@H](CC[C@@H]3C[C@@H](O)CC(=O)O3)[C@H]21 [Lovastatin, lovastatin]",cholesterol levels in heart transplant patients,[3],lower cholesterol levels
CC[C@H](C)C(=O)O[C@H]1C[C@H](O)C=C2C=C[C@H](C)[C@H](CC[C@@H](O)C[C@@H](O)CC(=O)O)[C@H]21 [pravastatin],rate of metabolism by P450,[4],sufficiently low
Cc1ccc(C)c(OCCCC(C)(C)C(=O)O)c1 [gemfibrozil],patients with myositis-flu like syndrome,patients; gemfibrozil when a statin is also administered,5%
CC(C)c1c(C(=O)Nc2ccccc2)c(-c2ccccc2)c(-c2ccc(F)cc2)n1CC[C@@H](O)C[C@@H](O)CC(=O)O [atorvastatin],patients with clinically important (>3 times ULN) elevations in serum ALT,"patients; low doses of atorvastatin, European SmPC",0.8%
